Measured values published in US8367680B2, “Antibacterial small molecules and methods for their synthesis” (Wisconsin Alumni Research Foundation, priority 2008, dated 2013).
Converted amounts (≈) assume the structure as drawn. Read-outs that look alike come from different tables or passages of the source.

System: MRSA
Conditions: Staphylococcus aureus

Row | MIC (read-out: Solution MIC) [µM] | MIC (read-out: Support MIC) [µM] | SMILES
1 | 54 ± 1 (≈ 18.9 µg/mL) | 25 to 50 (≈ 8.73 to 17.5 µg/mL) | NC(=O)COc1cccc(C(=O)/C=C/c2cccc(C(F)(F)F)c2)c1 [Compound B18]
2 | 0.6 ± 0.2 (≈ 0.199 µg/mL) | – | O=C(O)c1cn(C2CC2)c2cc(N3CCNCC3)c(F)cc2c1=O [ciprofloxacin]
3 | 5 ± 1 (≈ 1.69 µg/mL) | – | CC(=O)NC[C@H]1CN(c2ccc(N3CCOCC3)c(F)c2)C(=O)O1 [linezolid]
